PMC6137088, “The Role of Outer Membrane Proteins and Lipopolysaccharides for the Sensitivity of Escherichia coli to Antimicrobial Peptides” (Frontiers in Microbiology, 2018)
Structures can show the parent of a compound that is named as a salt. Where a SMILES comes first, the peptide text is derived from it. Bridges are numbered along the chain shown (N, C = ends). Where no end group is shown, it is not given here. [ ]: non-standard residue; d: D form. The star is where a group is joined. X1 = CC[C@H](C)CCCCC(=O)*; Dab = NCC[C@H](N)C(=O)O

Experiments:
[1] = test system: E. coli BW25113 gmhA::kan; type: cell-based, Escherichia coli; settings: for MIC: Table 3, BW25113 gmhA::kan, Mueller-Hinton-II, 16–20 h, duplicates (*) or triplicates
Description: (§1) The E. coli strains 470, F632, F653 and F2513 were kindly provided by Prof. H. Brade and Prof. S. Muller-Loennies, Research Center Borstel, Leipniz-Center for Medicine and Biosciences, Germany. E. coli BW25113 (CGSC#:7636), a derivative of F^−, λ^− E. coli K12 strain BD792 is the wild-type strain which was used in the generation of the KEIO collection and ordered from the Coli Genetic Stock Centre (CGSC, Yale University). E. coli JW3596, E. coli JW3024, E. coli JW3595, E. coli JW3606, E. coli JW0212, E. coli JW1667, E. coli JW0554, E. coli JW3605 and E. coli JW3600 are isogenic mutants of waaC, waaE, waaF, waaG, gmhA (lpcA), lpp, ompT, waaP, or waaY derived from the parental strain E. coli BW25113 and were ordered from the KEIO collection (Baba et al., [2006]). E. coli ATCC25922 is a clinical isolate, serotype O6, often used as control strain in antimicrobial susceptibility testing was ordered from the ATCC strain collection. All strains were grown in Mueller-Hinton-II medium and incubation took place aerobically at 37°C for 18–20 h.
(§2) The minimum inhibitory concentrations (MICs) of the AMPs were measured in 96-well microtiter plates according the Clinical and Laboratory Standards Institute [CLSI, formerly National Committee for Clinical Laboratory Standards (NCCLS)] (Wikler et al., [2009]). Liquid Mueller-Hinton-II medium containing increasing concentrations of AMPs is inoculated with a defined number of cells (~10^5 CFUs/ml) in 96-well microtiter plates (polypropylene). Each microtiter plate includes a positive growth control and a negative control (sterile control). After incubation, the minimal inhibitory concentration (MIC) is determined by the lowest concentration showing no visible growth. All plates were incubated for 16–20 h.

E. coli BW25113 lpp::kan = type: cell-based, Escherichia coli
Description: as §1, §2

[2] = test system: E. coli BW25113 ompT::kan; type: cell-based, Escherichia coli; settings: for MIC: Table 3, BW25113 ompT::kan, Mueller-Hinton-II, 16–20 h, duplicates (*) or triplicates
Description: as §1, §2

[3] = test system: E. coli BW25113 waaC::kan; type: cell-based, Escherichia coli; settings: for MIC: Table 3, BW25113 waaC::kan, Mueller-Hinton-II, 16–20 h, duplicates (*) or triplicates
Description: as §1, §2

[4] = test system: E. coli BW25113 waaE::kan; type: cell-based, Escherichia coli; settings: for MIC: Table 3, BW25113 waaE::kan, Mueller-Hinton-II, 16–20 h, duplicates (*) or triplicates
Description: as §1, §2

[5] = test system: E. coli BW25113 waaF::kan; type: cell-based, Escherichia coli; settings: for MIC: Table 3, BW25113 waaF::kan, Mueller-Hinton-II, 16–20 h, duplicates (*) or triplicates
Description: as §1, §2

[6] = test system: E. coli BW25113 waaG::kan; type: cell-based, Escherichia coli; settings: for MIC: Table 3, BW25113 waaG::kan, Mueller-Hinton-II, 16–20 h, duplicates (*) or triplicates
Description: as §1, §2

[7] = test system: E. coli BW25113 waaP::kan; type: cell-based, Escherichia coli; settings: for MIC: Table 3, BW25113 waaP::kan, Mueller-Hinton-II, 16–20 h, duplicates (*) or triplicates
Description: as §1, §2

[8] = test system: E. coli BW25113 waaY::kan; type: cell-based, Escherichia coli; settings: Table 3, Mueller-Hinton-II, 16–20 h, duplicates (*) or triplicates
Description: as §1, §2

E. coli BW25113 = type: cell-based, Escherichia coli; settings: Table 3; E. coli BW25113 wild type; Mueller-Hinton-II, ~10^5 CFUs/ml, 16–20 h; duplicates (*) or triplicates
Description: as §1, §2

E. coli ATCC25922 ΔwaaC = type: cell-based, Escherichia coli; settings: Table 6, triplicates
Description: as §1, §2

E. coli ATCC25922 ΔwaaE = type: cell-based, Escherichia coli; settings: Table 6, triplicates
Description: as §1, §2

E. coli ATCC25922 ΔwaaF = type: cell-based, Escherichia coli; settings: Table 6, triplicates
Description: as §1, §2

E. coli ATCC25922 ΔwaaG = type: cell-based, Escherichia coli; settings: Table 6, triplicates
Description: as §1, §2

E. coli ATCC25922 = type: cell-based, Escherichia coli; settings: triplicates; for Antimicrobial activity: MIC: Table 6, E. coli ATCC25922 wild-type
Description: as §1, §2

S. typhimurium LT2 = assay: MIC testing (CLSI broth microdilution); type: cell-based; settings: Table 6, triplicates
Procedure: as §2

Y. ruckeri 392/2003 = assay: MIC testing (CLSI broth microdilution); type: cell-based; settings: Table 6, triplicates
Procedure: as §2

[9] = test system: E. coli ATCC25922 LPS mutants (ΔwaaC, ΔwaaE, ΔwaaF, ΔwaaG); type: cell-based, Escherichia coli; settings: E. coli ATCC25922 background (text prints ATCC29522); summary of Table 6
Description: as §1, with “[…],” for “E. coli JW3605 and E. coli JW3600 are isogenic mutants of waaC, waaE, waaF, waaG,”, “or waaY derived from the parental strain E. coli BW25113 and were ordered from the” left out
as §2

E. coli F2513 (R4) = type: cell-based, Escherichia coli; settings: Table 4; E. coli F2513 (R4 prototype, rough LPS); triplicates
Description: as §1, §2

E. coli F470 (R1) = type: cell-based, Escherichia coli; settings: Table 4; E. coli F470 (R1 prototype, rough LPS); triplicates
Description: as §1, §2

E. coli F632 (R2) = type: cell-based, Escherichia coli; settings: Table 4; E. coli F632 (R2 prototype, rough LPS); triplicates
Description: as §1, §2

E. coli F653 (R3) = type: cell-based, Escherichia coli; settings: Table 4; E. coli F653 (R3 prototype, rough LPS); triplicates
Description: as §1, §2

CC[C@H](C)CCCCC(=O)N[C@@H](CCN)C(=O)N[C@H](C(=O)N[C@@H](CCN)C(=O)N[C@H]1CCNC(=O)[C@H]([C@@H](C)O)NC(=O)[C@H](CCN)NC(=O)[C@H](CCN)NC(=O)[C@H](CC(C)C)NC(=O)[C@@H](CC(C)C)NC(=O)[C@H](CCN)NC1=O)[C@@H](C)O [Colistin, colistin sulfate] (X1-[Dab]T[Dab][Dab][Dab][dL]L[Dab][Dab]T; lactam 4-C (inferred); N-terminus assumed)
MIC [1]: 0.063 µg/mL | increase in antimicrobial activity against BW25113 gmhA::kan compared to parental BW25113 ([1]; from MIC values of Table 3): up to 2 fold | MIC (E. coli BW25113 lpp::kan; Table 3, BW25113 lpp::kan, Mueller-Hinton-II, 16–20 h, duplicates (*) or triplicates): 0.063 to 0.125 µg/mL | increase in antimicrobial susceptibility of the lpp mutant compared to the wild-type (factor) (E. coli BW25113 lpp::kan; from MIC values of Table 3): 2 | MIC [2]: 0.125 to 0.25 µg/mL | increase of antimicrobial activity in the ompT mutant compared to the parental strain BW25113 (factor) ([2]; from MIC values of Table 3): unchanged | MIC [3]: 0.063 to 0.125 µg/mL | increase in antimicrobial activity against BW25113 waaC::kan compared to parental BW25113 ([3]; from MIC values of Table 3): up to 2 fold | MIC [4]: 0.063 to 0.125 µg/mL | increase in antimicrobial activity against BW25113 waaE::kan compared to parental BW25113 ([4]; from MIC values of Table 3): up to 2 fold | MIC [5]: 0.063 µg/mL | increase in antimicrobial activity against BW25113 waaF::kan compared to parental BW25113 ([5]; from MIC values of Table 3): up to 2 fold | MIC [6]: 0.063 to 0.125 µg/mL | increase in antimicrobial activity against BW25113 waaG::kan compared to parental BW25113 ([6]; from MIC values of Table 3): up to 2 fold | MIC [7]: 0.125 to 0.25 µg/mL | increase in antimicrobial activity in a waaP mutant background compared to the wild-type strain (times) ([7]; from MIC values of Table 3): not changed | MIC [8]: 0.125 to 0.25 µg/mL | MIC (E. coli BW25113): 0.125 to 0.25 µg/mL

GLRKRLRKFRNKIKEKKKKIGQKIQGLLPKLAPRTDY [L17K]
Antimicrobial activity: MIC (E. coli ATCC25922 ΔwaaC): 8 µg/mL | Antimicrobial activity: MIC (E. coli ATCC25922 ΔwaaE): 8 µg/mL | Antimicrobial activity: MIC (E. coli ATCC25922 ΔwaaF): 8 µg/mL | Antimicrobial activity: MIC (E. coli ATCC25922 ΔwaaG): 8 µg/mL | Antimicrobial activity: MIC (E. coli ATCC25922): ≥64 µg/mL | Antimicrobial activity: MIC (S. typhimurium LT2): 16 µg/mL | Antimicrobial activity: MIC (Y. ruckeri 392/2003): ≥64 µg/mL | MIC / antimicrobial activity in LPS mutants harboring a deletion in waaC, waaE, waaF, or waaG [9]: 4 to 8 µg/mL

GLRKRLRKFRNKIKEKLKKEGQKIQGLLPKLAPRTDY [I20E]
Antimicrobial activity: MIC (E. coli ATCC25922 ΔwaaC): 4 µg/mL | Antimicrobial activity: MIC (E. coli ATCC25922 ΔwaaE): 4 µg/mL | Antimicrobial activity: MIC (E. coli ATCC25922 ΔwaaF): 4 µg/mL | Antimicrobial activity: MIC (E. coli ATCC25922 ΔwaaG): 8 µg/mL | Antimicrobial activity: MIC (E. coli ATCC25922): ≥64 µg/mL | Antimicrobial activity: MIC (S. typhimurium LT2): 8 µg/mL | Antimicrobial activity: MIC (Y. ruckeri 392/2003): 32 µg/mL | MIC / antimicrobial activity in LPS mutants harboring a deletion in waaC, waaE, waaF, or waaG [9]: 4 to 8 µg/mL

GLRKRLRKFRNKIKEKLKKIGQKGQGLLPKLAPRTDY [I24G]
Antimicrobial activity: MIC (E. coli ATCC25922 ΔwaaC): 8 µg/mL | Antimicrobial activity: MIC (E. coli ATCC25922 ΔwaaE): 8 µg/mL | Antimicrobial activity: MIC (E. coli ATCC25922 ΔwaaF): 8 µg/mL | Antimicrobial activity: MIC (E. coli ATCC25922 ΔwaaG): 8 µg/mL | Antimicrobial activity: MIC (E. coli ATCC25922): ≥64 µg/mL | Antimicrobial activity: MIC (S. typhimurium LT2): 8 to 16 µg/mL | Antimicrobial activity: MIC (Y. ruckeri 392/2003): 32 µg/mL | MIC / antimicrobial activity in LPS mutants harboring a deletion in waaC, waaE, waaF, or waaG [9]: 4 to 8 µg/mL

GLRKRLRKFRNKIKEKLKKIGQKIQGPLPKLAPRTDY [L27P]
Antimicrobial activity: MIC (E. coli ATCC25922 ΔwaaC): 8 µg/mL | Antimicrobial activity: MIC (E. coli ATCC25922 ΔwaaE): 4 µg/mL | Antimicrobial activity: MIC (E. coli ATCC25922 ΔwaaF): 4 µg/mL | Antimicrobial activity: MIC (E. coli ATCC25922 ΔwaaG): 4 µg/mL | Antimicrobial activity: MIC (E. coli ATCC25922): ≥64 µg/mL | Antimicrobial activity: MIC (S. typhimurium LT2): 8 µg/mL | Antimicrobial activity: MIC (Y. ruckeri 392/2003): 32 µg/mL | MIC / antimicrobial activity in LPS mutants harboring a deletion in waaC, waaE, waaF, or waaG [9]: 4 to 8 µg/mL

KLRKLFRKLLKLIRKLLR [Cap11-1-18 m^2]
MIC [1]: 8 ^* μg/ml | MIC [2]: 8 ^* μg/ml | MIC [3]: 8 µg/mL | MIC [4]: 8 µg/mL | MIC [5]: 8 µg/mL | MIC [6]: 8 µg/mL | MIC (E. coli BW25113): 8 to 16 µg/mL | Antimicrobial activity (MIC) (E. coli F2513 (R4)): 8 to 16 µg/mL | Antimicrobial activity (MIC) (E. coli F470 (R1)): 32 µg/mL | Antimicrobial activity (MIC) (E. coli F632 (R2)): 16 to 32 µg/mL | Antimicrobial activity (MIC) (E. coli F653 (R3)): ≥32 µg/mL

SWLSKTAKKLENSAKKRISEGIAIAIQGGPR [Cecropin P1]
Antimicrobial activity (MIC) (E. coli ATCC25922; Table 4, E. coli ATCC25922 (smooth LPS)): 32 µg/mL | MIC [2]: 16 ^* μg/ml | MIC [3]: 8 µg/mL | MIC [4]: 8 µg/mL | MIC [5]: 4 µg/mL | MIC [6]: 16 µg/mL | MIC [7]: 16 to 32 µg/mL | MIC [8]: 32 µg/mL | MIC (E. coli BW25113): 16 to 32 µg/mL | Antimicrobial activity (MIC) (E. coli F2513 (R4)): 16 to 32 µg/mL | Antimicrobial activity (MIC) (E. coli F470 (R1)): 32 µg/mL | Antimicrobial activity (MIC) (E. coli F632 (R2)): 32 µg/mL | Antimicrobial activity (MIC) (E. coli F653 (R3)): 32 µg/mL
